Data on one compound can be found in patent publication US20240091210A1, “USE OF 5-[[4-[2-[5-ACETYLPYRIDIN-2-YL]ETHOXY]BENZYL]-1,3-THIAZOLIDINE-2,4-DIONE AND ITS SALTS” (Minoryx Therapeutics S.L., priority 2018, published 2024).

Data set [1] can be described thus: Plasma pharmacokinetics in rats after single oral 10 mg/kg M-III or MIN-102. The data set is classed as in vivo, male Sprague Dawley rats. The protocol:
The plasma pharmacokinetics of 5-[[4-[2-[5-acetylpyridin-2-yl]ethoxy]phenyl]methyl]-1,3-thiazolidine-2,4-dione (M-III; M3) and 5-[[4-[2-[5-(1-hydroxyethyl)pyridin-2-yl]ethoxy]phenyl]methyl]-1,3-thiazolidine-2,4-dione (M-IV; M4) were determined in male Sprague Dawley following a single oral (10 mg/kg) dose administration of either M-III or MIN-102.
Six animals were dosed orally with a suspension formulation of either M-III or MIN-102 in 0.1% Tween 80 and 99.9% CMC (0.5% w/v solution in RO water) at 10 mg/kg.
The dosing volume administered was 10 mL/kg. Blood samples (approximately 60 μL) were collected from retro-orbital plexus of three rats at 0.08, 0.25, 0.5, 1, 2, 4, 8, 12 and 24 hr (IV) and at predose, 0.25, 0.5, 1, 2, 4, 8, 12 and 24 hr. Samples were collected into labeled micro-tubes, containing K2EDTA solution (20% K2EDTA solution) as an anticoagulant. Plasma was immediately harvested from the blood by centrifugation at 4000 rpm for 10 min at 4±2° C. and stored below −70° C. until bioanalysis.
Concentrations of M-III and M-IV in rat plasma samples were determined by fit-for-purpose LC-MS/MS method. Non-Compartmental-Analysis module in Phoenix WinNonlin® (Version 6.3) was used to assess the pharmacokinetic parameters. Peak plasma concentrations (Cax) and time for the peak plasma concentrations (Tmax) were the observed values. The areas under the concentration time curve (AUClast and AUCinf) were calculated by linear trapezoidal rule.

A short description of data set [2]: Plasma pharmacokinetics in mice after single oral 4.5 mg/kg M-III or MIN-102. The data set is classed as in vivo, male C57BL/6 mice. The protocol: The plasma pharmacokinetics of 5-[[4-[2-[5-acetylpyridin-2-yl]ethoxy]phenyl]methyl]-1,3-thiazolidine-2,4-dione (M-III) and 5-[[4-[2-[5-(1-hydroxyethyl)pyridin-2-yl]ethoxy]phenyl]methyl]-1,3-thiazolidine-2,4-dione (M-IV) were determined in male C57BL/6 mice following a single oral (4.5 mg/kg) dose of either M-III or MIN-102 (5-[[4-[2-[5-(1-hydroxyethyl)pyridin-2-yl]ethoxy]phenyl]methyl]-1,3-thiazolidine-2,4-dione hydrochloride).
Animals were administered orally with a suspension formulation of either M-III or MIN-102 in 0.1% Tween 80 and 99.9% NaCMC in water (0.5% w/v) at 4.5 mg/kg dose. The blood samples were collected from a set of three mice at each time point in labeled micro centrifuge tubes containing K2EDTA solution as anticoagulant at Pre-dose, 0.25, 0.5, 1, 2, 4, 8, 12 and 24 hr. Plasma samples were separated by centrifugation of whole blood and stored below −70±10° C. until bioanalysis. All samples were processed for analysis by protein precipitation using acetonitrile and analyzed with fit-for-purpose LC-MS/MS method (LLOQ=2.46 ng/mL for M-III and 2.49 ng/mL for M-IV). Pharmacokinetic parameters were calculated using the non-compartmental analysis tool of Phoenix WinNonlin® (Version 6.3).

Data set [3] can be described thus: Plasma pharmacokinetics in dogs after single oral 3 mg/kg M3 or MIN-102. Type of data set: in vivo, male Beagle dogs. Here is the method: The plasma pharmacokinetics of 5-[[4-[2-[5-acetylpyridin-2-yl]ethoxy]phenyl]methyl]-1,3-thiazolidine-2,4-dione (M-III; M3) and 5-[[4-[2-[5-(1-hydroxyethyl)pyridin-2-yl]ethoxy]phenyl]methyl]-1,3-thiazolidine-2,4-dione (M-IV; M4) were determined in male Beagle dogs following a single oral (3 mg/kg) dose administration of either M3 or MIN-102.
Six animals were dosed orally with a suspension formulation of either M-III or MIN-102 in 0.1% Tween 80 and 99.9% CMC (aqueous carboxymethylcellulose 0.5% w/v solution in RO water) at 3 mg/kg. Blood samples (0.5 ml) were collected from the saphenous or cephalic or jugular veins of dogs at predose, 0.5, 1, 2, 4, 6 and 24 hr. Samples were collected into labeled micro-tubes, containing K2EDTA solution (20% K2EDTA solution) as an anticoagulant. Plasma was immediately harvested from the blood by centrifugation at 4000 rpm for 10 min and stored below −70° C. until bioanalysis.
Concentrations of M3 and M-IV in dog plasma samples were determined by fit-for-purpose LC-MS/MS method. Non-Compartmental-Analysis module in Phoenix WinNonlin® (Version 6.3) was used to assess the pharmacokinetic parameters. Peak plasma concentrations (Cmax) and time for the peak plasma concentrations (Tmax) were the […] observed values. The areas under the concentration time curve (AUClast and AUCinf) were calculated by linear trapezoidal rule.

The conditions of data set [4]: as described in WO 2015/150476 A1; cited from earlier work.
The test system of data set [5] is MDR1. Put plainly: MDCKII monolayer assay. The data set is classed as in vitro ADME. To be noted: dog, MDCK; after 120 minutes, MDCKII-MDR1 and MDCKII-Mock; loss due to conversion to M-IV. Here is the method: The monolayer assays were performed using parental and MDR1 transfected MDCKII cell monolayers. MDCKII and MDCKII-MDR1 cells were cultured in Dulbecco's Modified Eagle's Medium with 4.5 g/L glucose (DMEM) supplemented with 10% (v/v) fetal bovine serum (FBS) at 37±1° C. in an atmosphere of 95:5 air:CO2 in cell culture flasks prior to seeding into 24-transwell inserts. Transfected and parental MDCKII cells were cultured on the inserts with 400 μL medium per well on the apical side and 25 mL in a single-well receiver tray for all 24 wells on the basolateral side, for 96 hours. Medium was changed 24 hours before the experiment. Trans-epithelial electric resistance (TEER) of each well was measured to confirm the confluency of the monolayers prior to the experiments. Permeability incubations were carried out in Hank's Buffered Salt Solution (HBSS) at 37±1° C. Apical to basolateral permeability of Lucifer yellow (LY) was assessed as a low permeability control and antipyrine was as a high permeability compound. […] LY samples were analyzed by measuring fluorescence with the following wavelengths: excitation—485 nm emission—520 nm, while the antipyrine samples were analyzed with LC-MS/MS.
As another follow-up, MDCKII-MDR1 substrate experiment was repeated at […] M-III. The amounts of M-III and M-IV were determined at the end of the incubation time. […]

A short description of data set [6]: Plasma pharmacokinetics in mice after single oral 50 mg/kg M-III. To be noted: male C57BL/6 mice. Type of data set: in vivo. Here is the method: To the plasma pharmacokinetics of 5-[[4-[2-[5-acetylpyridin-2-yl]ethoxy]phenyl]methyl]-1,3-thiazolidine-2,4-dione (M-III) and 5-[[4-[2-[5-(1-hydroxyethyl)pyridin-2-yl]ethoxy]phenyl]methyl]-1,3-thiazolidine-2,4-dione (M-IV) were determined in male C57BL/6 mice following a single oral (50 mg/kg) dose administration of M-III.
Nine animals were administered orally with suspension formulation of M-III in 0.1% Tween 80 and 99.9% NaCMC in water (0.5% w/v) at 50 mg/kg dose. The dosing volume administered was 10 mL/kg. The blood samples were collected from set of three mice at each time point in labeled micro centrifuge tube containing K2EDTA solution as anticoagulant at Pre-dose, 0.25, 0.5, 1, 2, 4, 8, 12 and 24 hr. Plasma samples were separated by centrifugation of whole blood and stored below −70±10° C. until bioanalysis. All samples were processed for analysis by protein precipitation using acetonitrile and analyzed with fit-for-purpose LC-MS/MS method (LLOQ=2.46 ng/mL for M-III and 2.49 ng/mL for M-IV). Pharmacokinetic parameters were calculated using the non-compartmental analysis tool of Phoenix WinNonlin® (Version 6.3).

As for `CC(=O)c1ccc(CCOc2ccc(CC3SC(=O)NC3=O)cc2)nc1` (stereo not drawn) [M-III, 5-[[4-[2-[5-acetylpyridin-2-yl]ethoxy]phenyl]methyl]-1,3-thiazolidine-2,4-dione], the “share of total exposure (AUC)” value in data set [1] (after single oral 10 mg/kg M-III, male rats) is recorded as about 53%; in data set [1] (after single oral 10 mg/kg MIN-102, male rats), “about 42%”; in data set [2] (after single oral 4.5 mg/kg M-III, male mice), about 27%; in data set [2] (after single oral 4.5 mg/kg MIN-102, male mice), “about 38%”; in data set [3] (after single oral 3 mg/kg M3, male dogs), about 16%; in data set [3] (after single oral 3 mg/kg MIN-102, male dogs) it was “about 8%”. For the same compound, in data set [6], the “share of total exposure (AUC)” value is recorded as “about 25%”. Also, the blood-brain-barrier penetration entry in data set [4] was “does not penetrate the BBB”. The same compound had a recovery at 120 min in data set [5] of 30 to 60%.
